Where two headings read alike, the source gives them in different places.
Columns and labels:
[1] = tested on: NCI-H358 cells (express KRas G12C), Phospho-ERK; test: Cellular inhibition of KRas G12C: Phospho-ERK in NCI-H358 cells; type: cell-based; conditions: pERK(Thr202/Tyr204) normalized with GAPDH, NCI-H358 cells, 3 hours, read-out: IC50
How it was run: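 IC50 derived by 4-parameter fit of GAPDH-normalized pERK(Thr202/Tyr204) signal, as percent of DMSO control. Signal came from in-cell immunodetection with infrared secondaries after 3 h compound exposure of KRas G12C NCI-H358 cells at 0.5% DMSO.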

KRas G12C = KRas G12C (Homo sapiens, UniProt P01116, C118S/C51S/C80L/G12C); test: KRas G12C Modification Assay (LCMS detection of covalent adduct); type: binding; conditions: normalized percent of control; tested at 5 μM concentration for 3 hours
How it was run: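 Covalent modification was read by reverse-phase LC/MS of intact protein after compound exposure, each reaction stopped at its time point with 25 mM acetic acid. Unmodified-protein signal, taken as percent of total, was normalised to untreated protein and reported as POC.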

POC (KRas G12C) | Compound | IC50 [1] [nM] | IC50 ([1]; Homo sapiens) [nM] | IC50 ([1]; Homo sapiens, NCI-H358, 3 h) [nM]
C (“C”>50% POC) | Cc1cccc2cccc(N3CCc4c(nc(OCCC(=O)N(C)C)nc4N4CCN(C(=O)/C=C/CN(C)C)[C@@H](CC#N)C4)C3)c12 [Example 460, (S,E)-3-((4-(3-(cyanomethyl)-4-(4-(dimethylamino)but-2-enoyl)piperazin-1-yl)-7-(8-methylnaphthalen-1-yl)-5,6,7,8-tetrahydropyrido[3,4-d]pyrimidin-2-yl)oxy)-N,N-dimethylpropanamide] |  | 0.1 to 1000 | 
C (“C”>50% POC) | C=CC(=O)N1CCN(c2nc(OC[C@@H]3CCCN3C)nc3c2CCN(c2cccc4cccc(Br)c24)C3)C[C@@H]1CC#N [Example 461, 2-((S)-1-acryloyl-4-(7-(8-bromonaphthalen-1-yl)-2-(((S)-1-methylpyrrolidin-2-yl)methoxy)-5,6,7,8-tetrahydropyrido[3,4-d]pyrimidin-4-yl)piperazin-2-yl)acetonitrile] |  |  | 0.1 to 1000
C (“C”>50% POC) | C=CC(=O)N1CCN(c2nc(OC[C@@H]3CCCN3C)nc3c2CCN(c2cccc4ccccc24)C3)[C@@H](C#N)C1 [Example 462, (R)-4-acryloyl-1-(2-(((S)-1-methylpyrrolidin-2-yl)methoxy)-7-(naphthalen-1-yl)-5,6,7,8-tetrahydropyrido[3,4-d]pyrimidin-4-yl)piperazine-2-carbonitrile] |  |  | > 1000

Compound | POC (KRas G12C) | IC50 [1] [nM] | IC50 ([1]; Homo sapiens) [nM] | IC50 ([1]; Homo sapiens, NCI-H358, 3 h) [nM]
C=CC(=O)N1CCN(c2nc(OC[C@@H]3CCCN3C)nc3c2CCN(c2c(C)c(C)cc4[nH]ncc24)C3)C[C@@H]1CC#N [Example 459, 2-[(2S)-4-[7-(5,6-dimethyl-1H-indazol-4-yl)-2-[[(25)-1-methylpyrrolidin-2-yl]methoxy]-6,8-dihydro-5H-pyrido[3,4-d]pyrimidin-4-yl]-1-prop-2-enoyl-piperazin-2-yl]acetonitrile] | C (“C”>50% POC) | 0.1 to 1000 |  | 
